How the values were obtained:
[1] = test system: HIV-1 (NL4-3) WT; test: Anti-HIV activity measurement, TZM-bl cells, luciferase; format: cell-based; details: for EC50: Human immunodeficiency virus 1, NL43, TZM-bl, read-out: EC50 for HIV
Method: (§1) TZM-bl cells were cultured in a medium in which fetal bovine serum (Japan Bio Serum) having a final concentration of 10% had been added into Dulbecco's modified Eagle's Medium (DMEM) (SIGMA/Cat. No. D5796), under the conditions of 37° C. and 5% CO2. TZM-bl cells were plated in a 96-well microplate (1.3×10^4 cells/100 μL DMEM+10% FBS). On the following day, a drug solution, and HIV-1 (NL4-3, 10 ng) were added to the culture medium in this order. After two days, […] of culture supernatant was removed, 100 μL of 1×Steady Glo (Promega/Cat. No. E2510) was added into the resultant medium, luciferase in 80 μL of scraped cell lysate was quantified with a dedicated plate (Coster/Cat. No. 3912) IESEL, VERITAS Microplate Luminometer (Promega), and the anti-HIV-1 activity (EC50) of the drug was calculated. Experiments were performed on multiple compounds by using various types of viruses. In Table (A), the “AZT” means azidothymidine, the “Lamivudine” means lamivudine, and the “Didanosine” means didanosine.

[2] = test system: HIV M41L/T215Y; test: as above; format: cell-based, HIV-1; details: Human immunodeficiency virus 1, TZM-bl, read-out: EC50 for HIV
Method: as §1

[3] = test system: HIV M41L/T69SSG/T215Y; test: as above; format: cell-based, HIV-1; details: for EC50: Human immunodeficiency virus 1, TZM-bl, read-out: EC50 for HIV
Method: as §1

[4] = test system: HIV M184V; test: as above; format: cell-based, HIV-1; details: Human immunodeficiency virus 1, TZM-bl, read-out: EC50 for HIV
Method: as §1

[5] = test system: HBV (genotype C) in EB-HBCe cells; test: Anti-HBV activity: HBV DNA of viral particles in culture supernatant of EB-HBCe cells by qPCR; format: cell-based, hepatitis B virus; details: FIG. 5; for anti-HBV activity (HBV DNA): various final concentrations, 9 days, activity higher at higher concentration
Method: A cell line EB-HBCe, which is derived from a human liver cancer cell HuH-7 and in which the HBV genome (genotype C) constantly replicates, was plated in a 24-well plate, respective compound were added at various final concentrations into the plate, and the cell line EB-HBCe was cultured for 9 days. During the culture, the medium was replaced with new one and the above compounds were added at the same concentration into the plate, every three days.
The culture supernatant was collected, the viral particles were precipitated by the addition of a PNE solution (8.45% PEG 6000, 0.445 M NaCl, 13 mM EDTA), and then the nucleic acids outside the particles were removed by the treatment with DNase I (TAKARA BIO INC.) and RNase A (TAKARA BIO INC.) at 37° C. for 1 hour. Further, after the overnight treatment with Proteinase K, the DNA was extracted with phenol/chloroform, and precipitated with ethanol. The precipitate was solubilized, and then the HBV DNA was quantitatively measured by using SYBR qPCR Mix Kit (TOYOBO CO., LTD.). In FIG. 5, the “SelenoA” indicates the results of addition of compound 13, and the “entecavir” indicates the result of addition of entecavir.

[6] = Cytotoxicity evaluation, MTT assay; format: cell-based; details: human; MT-4 cells, MTT, 5th day of culture
Method: (§2) In MTT assay, Celltiter 96 Non-radioactive Cell Proliferation Assay (Promega) was used. MT-4 cells were infected with HIV-1 NL4-3 at multiplicity of infection (MOI)=0.001. HIV-1-infected (37° C., 1-1.5 hours) or -uninfected MT-4 cells (2.5×10^5/ml, 100 μL) were aliquoted into a 96-well microplate (final DMSO concentration: 0.5%), and the culture was started at 37° C. and 5% CO2. On the 5th day of the culture, the culture supernatant (100 μL) was removed, 15 μL of dye solution (MTT reagent) was added into each well, and the cells were cultured in a CO2 incubator for 1 hour. Subsequently, 100 μL of solubilization solution/stop mix was added into each well, mixed sufficiently, and the obtained mixture was left to stand at 4° C. overnight. After returning the temperature of the plate to room temperature, DD570/690 was measured with a spectrophotometer (BIO-TEK ELx808, CC50).

[7] = test system: MT-4 cells; test: Cytotoxicity evaluation, MTT assay; format: cell-based; details: comparison in words from Table 1 (B)
Method: as §2

SMILES	EC50 [1] [µM]	EC50 [2] [µM]	EC50 [3] [µM]	EC50 [4] [µM]	anti-HBV activity (HBV DNA) [5]	anti-HIV activity compared with Lamivudine and Didanosine ([1]; comparison in words from Table 1 (A), all virus types)	anti-HBV activity, ranking among SelenoA, Pro SelenoA and Pro A ([5]; concentration of addition 10 μM)	anti-HIV activity compared with AZT ([3]; HIV-type M41L/T69SSG/T215Y, comparison in words from Table 1 (A))	CC50 at 5 day [6] [µM]	toxicity compared with AZT [7]
O=c1[nH]cnc2c1ncn2[C@H]1CC[C@@H](CO)O1 [Didanosine, didanosine, reference compound]	3.2	5.6	17	8.3						
Nc1ccn([C@@H]2CS[C@H](CO)O2)c(=O)n1 [Lamivudine, lamivudine, reference compound]	1.2	1.7	24	> 100						
CCCSSC1[C@@H](O)[C@@H](COP(O)(=N[C@@H](C)C(=O)OC(C)C)Oc2ccccc2)O[C@H]1n1cnc2c(N)ncnc21 (some centres unmarked) [Pro A]					showed anti-HBV activity					
C[Se]C1[C@@H](O)[C@@H](COP(O)(=N[C@@H](C)C(=O)OC(C)C)Oc2ccccc2)O[C@H]1n1cnc2c(N)ncnc21 (some centres unmarked) [Pro SelenoA]	0.98	1.3	1.4	2	showed anti-HBV activity	higher anti-HIV activity	highest anti-HBV activity among these three kinds	more excellent anti-HIV activity	> 100	lower
Nc1ncnc2c1ncn2[C@@H]1O[C@H](CO)[C@@H](O)[C@H]1[SeH] [SelenoA, Seleno adenosine]					showed anti-HBV activity					

From US11597745B2, “β-modified phosphoric acid compound precursor, β-modified phosphoric acid compound, reaction inhibitor and medicine containing the same, and method for inhibiting reaction” (priority 2018, dated 2023)
